Experimental data taken from patent US7754722B2, “Piperazine derivatives and methods of use” (Merck Serono SA, priority 2002, dated 2010).

Biological target: T1, FSH receptor (Homo sapiens, UniProt P23945)
T1 construct: expressed in transfected cells; host or cells: CHO (Chinese Hamster Ovary) cells, stably transfected, carrying a cAMP response element-luciferase reporter
T1 sequence (P23945 18-695): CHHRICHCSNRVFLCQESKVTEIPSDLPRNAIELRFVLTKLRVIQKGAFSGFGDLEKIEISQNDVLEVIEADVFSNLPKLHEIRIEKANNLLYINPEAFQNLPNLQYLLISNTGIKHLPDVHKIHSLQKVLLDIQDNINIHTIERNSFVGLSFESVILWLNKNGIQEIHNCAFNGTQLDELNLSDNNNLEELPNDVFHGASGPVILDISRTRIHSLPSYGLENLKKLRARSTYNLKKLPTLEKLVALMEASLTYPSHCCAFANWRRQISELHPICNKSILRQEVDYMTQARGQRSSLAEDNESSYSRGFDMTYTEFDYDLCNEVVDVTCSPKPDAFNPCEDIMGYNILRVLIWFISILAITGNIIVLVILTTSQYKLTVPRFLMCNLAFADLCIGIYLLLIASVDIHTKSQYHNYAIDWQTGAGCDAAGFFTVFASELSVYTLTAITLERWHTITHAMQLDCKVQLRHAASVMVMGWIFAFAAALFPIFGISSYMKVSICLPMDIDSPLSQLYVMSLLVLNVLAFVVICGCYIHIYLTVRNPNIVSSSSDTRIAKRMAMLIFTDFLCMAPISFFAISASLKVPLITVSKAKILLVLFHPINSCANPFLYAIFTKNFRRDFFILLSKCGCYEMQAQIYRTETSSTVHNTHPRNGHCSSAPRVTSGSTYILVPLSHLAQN
Assay: FSH assay: cAMP response element luciferase reporter in CHO cells expressing recombinant FSH receptor
Type: cell-based
Conditions: agonist activity; CHO cells stably transfected with recombinant FSH receptor; luciferase luminescence; log-dose-response curves; incubation 37° C. for 3 hrs 30 min; read-out: ED50 (the source's name)
Description: Compounds of the invention were tested in the following assay.
All compounds of the invention were stored in 96-well deepwell plates in DMSO at a nominal concentration of 10 μM. Compounds of the invention were screened for agonist activity at the FSH receptor using the recombinant FSH receptor stably transfected and expressed in Chinese Hamster Ovary Cells (CHO cells) essentially as described in the work by Kelton, et al. Molecular and Cellular Endocrinology, 1992, 89, 141-151). […] Thus an agonist at the FSH receptor increases cAMP in the cell which results in activation of the CREB (cAMP) response element binding protein). The substrate for the enzyme (Packard Instrument Company 800 Research Parkway, Meriden, Conn. 06450, USA) was added to the cells after appropriate incubation with the compounds or FSH and the amount of luciferase expressed was measured by quantitating the luminescence produced by the enzyme using a TopCount scintillation/luminescence counter running in single photon counting mode. A compound which acts as an agonist at the receptor should produce light from the treated cells in proportion to its concentration within the incubation. Luminescence should be saturable at high concentrations of the compound.
The compounds of the invention, in deepwell plates (Master plates) as indicated above were loaded on the robotic deck along with the appropriate number of assay plates and daughter plates. A 10 μl aliquot from each master plate was transferred to the corresponding daughter plate and 90 μl of DME/F12 was added and mixed within each well. 20 μl was then removed from the daughter plate and dispensed into the assay plate. After addition of an aliquot of FSH (equivalent to an EC100 response for this hormone to each of three wells on the plate, 80 μl of media (DME/F 12±2% serum) and 100 μl aliquot of cells (4×10^5/ml in the same media) were added and the plate incubated at 37° C. for 3 hrs 30 min. At this time the plate was removed from the incubator and media in each well was aspirated and the cells adhering to the bottom of the plate washed with 300 μl PBS containing 1 mM Ca^2+ and 1 mM Mg^2+. The PBS was aspirated and 100 μl PBS added to each well. 100 μl of Lucite (prepared as described by the manufacturer) was added to each well and the plate was shaken gently for 40 seconds prior to placement in the TopCount plate reader. After allowing 3.5 minutes for the plate to dark-adapt within the machine, the amount of luminescence generated was quantitated using Single Photon Counting mode. The data was transmitted electronically from the TopCount to the robot processing computer terminal and was renamed with an ID corresponding to the original master plate ID. […] LDR (log-dose-response) curves were generated for these compounds in CHO cells containing the FSH receptor and these curves were also compared with those in either cells expressing a different Gs linked receptor or in cells lacking any transfected receptor.

Row | EC50 [µM] | Compound
1 | 0.38 | CCCCCCN1CCN(S(=O)(=O)c2cccs2)[C@H](C(=O)Nc2ccc3c(c2)c2ccccc2n3CC)C1 [4-hexyl-1-(thiophene-2-sulfonyl)-piperazine-2-carboxylic acid (9-ethyl-9H-carbazol-3-yl) amide]
2 | 0.054 | CCCCCCCCN1CCN(S(=O)(=O)c2cccs2)[C@H](C(=O)Nc2ccc3c(c2)nc(-c2ccncc2)n3CC)C1 [4-octyl-1-(thiophene-2-sulfonyl)-piperazine-2-carboxylic acid (1-ethyl-2-pyridin-4-yl-1H-benzoimidazol-5-yl)amide]
3 | 0.402 | CCCCC(=O)N1CCN(S(=O)(=O)c2cccs2)[C@H](C(=O)Nc2ccc3c(c2)c2ccccc2n3CC)C1 [4-pentanoyl-1-(thiophene-2-sulfonyl)-piperazine-2-carboxylic acid (9-ethyl-9H-carbazol-3-yl) amide]
4 | 0.22 | CCCCCN1CCN(S(=O)(=O)c2cccs2)C(C(=O)Nc2ccc3[nH]c4c(c3c2)CCNC4=O)C1 (stereo not drawn) [4-pentyl-1-(thiophene-2-sulfonyl)-piperazine-2-carboxylic acid (1-oxo-2,3,4,9-tetrahydro-1H-beta-carbolin-6-yl)amide]
5 | 0.15 | CCCCCN1CCN(S(=O)(=O)c2cccs2)[C@H](C(=O)Nc2ccc3c(c2)nc(-c2cccnc2)n3CC)C1 [4-pentyl-1-thiophene-2-sulfonyl)-piperazine-2-carboxylic acid (1-ethyl-2-pyridin-3-yl-1H-benzoimidazol-5-yl)amide]
6 | 0.408 | CCOC(=O)CNC(=O)N1CCN(S(=O)(=O)c2cccs2)[C@H](C(=O)Nc2ccc3c(c2)c2ccccc2n3CC)C1 [{[3-(9-ethyl-9H-carbazol-3-ylcarbamoyl)-4-(thiophene-2-sulfonyl)-piperazine-1-carbonyl]-amino}acetic acid ethyl ester]
